In patent US20160101106A1, “METHODS FOR TREATING HCV INFECTION” (Inhibikase Therpeutics, Inc., priority 2013, published 2016):
Like-named read-outs stand apart in the source and are kept apart here.

What was measured:
Format in all cases: cell-based, HCV
HCVpp, Genotype 1b = assay: microbe, parasite or virus in culture
HCVcc, Genotype 2a = assay: HCVcc inhibitor assay in Huh 7.5 cells, Renilla luciferase readout; settings: Hepatitis C virus, Huh-7.5.1
Procedure: The secondary screen, for anti-HCV activity utilized HCVcc, a lab-adapted full infection cycle virus, to evaluate the effect of Raf inhibition on viral entry. The HCVcc inhibitor assay uses Huh 7.5 cells and HCVcc containing the luciferase gene generated from pJ6/JFH1-p7Rluc. Briefly cells are plated one day prior to assay. On the day of assay, media is aspirated. The cells are pre-treated with 100 μl of 1X compound. After 1 h pretreatment, compound containing media is aspirated, HCVcc diluted 1x compound is added to each well. Toxicity plates receive only the test compound in tissue culture medium. […] Compound cytotoxicity is assessed by MTS (CellTiter® 96 Reagent, Promega, Madison Wis.) dye reduction. The % reduction in viral entry is determined and reported. […]
The plasmids carrying HCV J6/JFH1 genome, or chimeric mCon1/JFH1 or mH77/JFH1 genome and Rluc reporter gene were kindly provided by Dr. Charles Rice at Rockefeller University. […] HCVcc infectivity was determined by TCID50 assay. […] The number of HCV positive cells was counted. The TCID50 was calculated according to the Reed and Muench method.
The format of the test plate has been standardized by SOUTHERN. […] Samples were evaluated for antiviral efficacy with triplicate measurements using 6 concentrations at half-log (or other) dilutions in order to determine EC50 values and cellular cytotoxicity, if detectable. […]

HCVcc GT2a = assay: Synergistic antiviral potency against HCVcc (AZ-628 with direct-acting antivirals); settings: for EC50: read-out: EC50 alone
Procedure: The tested RAF inhibitors were evaluated for an ability to synergize with other current, late stage or marketed direct-acting antivirus (DAAs).

[1] = Genotype 1b, luciferase tagged HCV GT-1b pseudotyped virus, Huh 7.5.1, ≧80% confluent cells, MOI 0.02, read-out: EC50

`Cc1ccc(NC(=O)c2cccc(C(C)(C)C#N)c2)cc1Nc1ccc2ncn(C)c(=O)c2c1` [AZ-628] gave an EC50 (HCVpp, Genotype 1b; Hepatitis C virus, Huh-7.5.1) of 0.42 µM, an EC50 (HCVcc, Genotype 2a) of 0.12 µM and an inhibition at 0.025 µM (HCVcc GT2a; Hepatitis C virus, GT2A, IkT-064 25 nM, GS-7977 0 nm) of 0%. The inhibition at 0.05 µM (HCVcc GT2a; Hepatitis C virus, GT2A, IkT-064 50 nM, GS-7977 0 nm) was 0%, the inhibition at 0.1 µM (HCVcc GT2a; Hepatitis C virus, GT2A, IkT-064 100 nM, GS-7977 0 nm) was 0% and the inhibition at 0.2 µM (HCVcc GT2a; Hepatitis C virus, GT2A, IkT-064 200 nM, GS-7977 0 nm) was 5.15%. The inhibition at 0.4 µM (HCVcc GT2a; Hepatitis C virus, GT2A, IkT-064 400 nM, GS-7977 0 nm) was 73.4%, the EC50 (HCVcc GT2a; Hepatitis C virus) was 0.3 µM and the “% antiviral inhibition” value (HCVcc GT2a; IkT-064 25 nM, BMS-790052 0 pM) was 2.83%. For the same molecule, the “% antiviral inhibition” value (HCVcc GT2a; IkT-064 200 nM, BMS-790052 0 pM) was 17.39% and the “% antiviral inhibition” value (HCVcc GT2a; IkT-064 400 nM, BMS-790052 0 pM) was 74.25%.

In the case of `CC(C)OC(=O)[C@H](C)N[P@](=O)(OC[C@H]1O[C@@H](n2ccc(=O)[nH]c2=O)[C@](C)(F)[C@@H]1O)Oc1ccccc1` [GS-7977], the EC50 (HCVcc GT2a; Genotype 2a, single drug) is reported as 0.25 µM, the “Fold Synergy” value (HCVcc GT2a; Genotype 2a, with AZ-628) is reported as 5 and the “% antiviral inhibition” value (HCVcc GT2a; IkT-064 0 nM, GS-7977 1.563 nm) is reported as 0%. The “% antiviral inhibition” value (HCVcc GT2a; IkT-064 0 nM, GS-7977 3.125 nm) was 0%, the “% antiviral inhibition” value (HCVcc GT2a; IkT-064 0 nM, GS-7977 6.25 nm) was 0% and the “% antiviral inhibition” value (HCVcc GT2a; IkT-064 0 nM, GS-7977 12.5 nm) was 0%. The “% antiviral inhibition” value (HCVcc GT2a; IkT-064 0 nM, GS-7977 25 nm) was 2.65%, the “% antiviral inhibition” value (HCVcc GT2a; IkT-064 0 nM, GS-7977 50 nm) was 11.54% and the “% antiviral inhibition” value (HCVcc GT2a; IkT-064 0 nM, GS-7977 100 nm) was 21.51%. The “% antiviral inhibition” value (HCVcc GT2a; IkT-064 0 nM, GS-7977 200 nm) was 44.74%.

Work on `CCCS(=O)(=O)Nc1ccc(F)c(C(=O)c2c[nH]c3ncc(-c4ccc(Cl)cc4)cc23)c1F` [Zelboraf/PLX4032] yielded an EC50 (HCVpp, Genotype 1b; [1]) of over 5 µM.

`CC(C)(C)c1nc(-c2cccc(NS(=O)(=O)c3c(F)cccc3F)c2F)c(-c2ccnc(N)n2)s1` [GSK2118436/dabrafinib] was tested, and the EC50 (HCVpp, Genotype 1b; [1]) was over 5 µM.

In the case of `CNC(=O)c1cc(Oc2ccc(NC(=O)Nc3ccc(Cl)c(C(F)(F)F)c3)cc2)ccn1` [sorafenib], the EC50 (HCVpp, Genotype 1b; Hepatitis C virus, Huh-7.5.1) is reported as 1.81 µM.

`Cn1c(Nc2ccc(C(F)(F)F)cc2)nc2cc(Oc3ccnc(-c4ncc(C(F)(F)F)[nH]4)c3)ccc21` [Raf265] showed an EC50 (HCVpp, Genotype 1b; Hepatitis C virus, Huh-7.5.1) of 0.89 µM and an EC50 (HCVcc, Genotype 2a) of 1.05 µM.

`COC(=O)N[C@H](C(=O)N1CCC[C@H]1c1ncc(-c2ccc(-c3ccc(-c4cnc([C@@H]5CCCN5C(=O)[C@@H](NC(=O)OC)C(C)C)[nH]4)cc3)cc2)[nH]1)C(C)C` [BMS-790052] was tested, and the EC50 (HCVcc GT2a; Hepatitis C virus, Genotype 2a, single drug) was 0.0001 µM, the “% antiviral inhibition” value (HCVcc GT2a; IkT-064 0 nM, BMS-790052 0.781 pM) was 0% and the “% antiviral inhibition” value (HCVcc GT2a; IkT-064 0 nM, BMS-790052 1.563 pM) was 0%. The “% antiviral inhibition” value (HCVcc GT2a; IkT-064 0 nM, BMS-790052 3.125 pM) was 8.7%, the “% antiviral inhibition” value (HCVcc GT2a; IkT-064 0 nM, BMS-790052 6.25 pM) was 8.72% and the “% antiviral inhibition” value (HCVcc GT2a; IkT-064 0 nM, BMS-790052 12.5 pM) was 17.27%. The “% antiviral inhibition” value (HCVcc GT2a; IkT-064 0 nM, BMS-790052 25 pM) was 19.54%, the “% antiviral inhibition” value (HCVcc GT2a; IkT-064 0 nM, BMS-790052 50 pM) was 33.86% and the “% antiviral inhibition” value (HCVcc GT2a; IkT-064 0 nM, BMS-790052 100 pM) was 59.54%.
